We go through 6 compounds from EP0472304A2, “Pharmaceutical compositions containing therapeutically active organosilane derivatives and process for preparing same” (Richter Gedeon Vegyészeti Gyár R.T., priority 1990, dated 1992).

Molecules are shown by their SMILES. Marks after values point to notes of the source that are not given here.

For assay [1], the system named is flexor reflex. The assay can be described thus: Investigation of the flexor reflex on anaesthetized cats. As to conditions: chloralose-anaesthetized cats. It is filed as in vivo. An excerpt:
Method 3: Investigation of the flexor reflex on anaesthetized cats
Chloralose-anaesthetized cats of both sexes weighing 2.2-5.4 kg each were used in these experiments. The flexor reflex of the animals was studied by using the quantitative electromyographic method of Farkas et al [Pharmacol. Res. Comm. 20, Suppl. 1, 141 (1988)].
The results summarized in Table 1 are the values calculated from the average results of 4 to 8 experiments. The duration of effect was characterized by the time passing from the administration of this dose until the return to 75% of the control value (T75%).
The pharmacological activities of the compounds showing the most prominent effects together with the activity of tolperisone used as reference drug are shown in Table 1.

Assay [2] has as its system Straub's tail. The assay can be described thus: Straub's tail test (morphine-induced). The class given is in vivo, male OF-1 mice. As to conditions: Mus musculus, ip; mice, i.p., pretreatment 20 min before reading; 60 mg/kg i.p. morphine hydrochloride. The procedure:
Method 2: Straub's tail test
The method of Novack [Drug Development Res. 2, 383 (1982)] was used with a slight modification. Groups consisting of 10 male OF-1 mice each weighing 19 to 21 g were intraperitoneally treated with 60 mg/kg of morphine hydrochloride. The formation of Straub's tail was judged 15 minutes after the morphine treatment. This was considered to be positive when the animal kept his tail permanently upwards at an angle being steeper than 45°. A pretreatment was carried out with various doses of the compound to be tested 20 minutes before the time of reading. The ED50 value, i.e. the dose inhibiting the positive response in 50% of the animals, was calculated by using the method of Litchfield and Wilcoxon.
(The above author found a good relation between the activity shown in the above test and the clinical effectivity of central muscle relaxants.)

The subject of assay [3] is GYKI-20039-induced tremor. The assay can be described thus: Test on the GYKI-20039-induced tremor. The class given is in vivo, male CFLP mice. The note with it: Mus musculus, iv; mice, pretreatment time 0 min; dose causing 50% inhibition of tremor induced by 10 mg/kg i.p. GYKI-20039. The procedure:
Method 1: Test on the GYKI-20039-induced tremor
Groups consisting of 10 to 20 male CFLP mice each weighing 19 to 21 g were intraperitoneally (i.p.) treated with 10 mg/kg of GYKI-20039 (test substance). Similarly to the structurally related compound of code number LON-954, GYKI-20039 induces a tremor on mice which is considered as the experimental model of the Parkinson's disease [Coward et al., Psychopharmacology 52, 165 (1977); Andrasi et al. IX Internat. Congress of Neuropathology, 1-98, 209, Vienna 1982]. The tremor induced by GYKI-20039 reaches a maximum strength 4 to 8 minutes following administration of the test substance, then it continuously diminishes and is finished within about 1 hour. According to our experiences obtained on ten known central muscle relaxants, this tremor can be inhibited by central muscle relaxants in a dose-dependent manner and is useful for the assay (evaluation) of the central muscle relaxant effects. After administration of the test substance, the mice were suspended on an isometric dynamometer in a light plastic box and the strength of the tremor was measured and quantified by electronic integration. The tremor strength of the mice was averaged in the 4th-8th minutes after treatment with the test substance.
The animals were pretreated with various doses of the muscle relaxants to be tested before the treatment with the test substance. […]

The mark [4] stands for this setting: 10 mg/kg i.v., time until return to 75% of the control value.

As a reminder, the ED50 is the midpoint of the dose-response relation. As to `C[Si](C)(CN1CCCC1)c1ccccc1.Cl` [Compound 3, N-[(dimethyl-phenylsilyl)methyl]pyrrolidine hydrochloride], the “Duration of effect T75%” value in assay [1] (i.v., the effect of 5 mg/kg was investigated) is listed as 50** min. In addition, the ED50 in assay [2] came to 37.7 mg/kg.
In the case of `Cc1ccc(C(=O)C(C)CN2CCCCC2)cc1` (stereo not drawn) [Tolperisone, tolperisone, reference compound], the ED50 in assay [3] turned out to be 10.2 mg/kg; in assay [2] it was 63 mg/kg. Moreover, the “Duration of effect T75%” value in assay [1] (setting [4]) was found to be 50 min.
Consider `C[Si](C)(CN1CCCCC1)c1ccccc1.O=C(O)/C=C/C(=O)O` [Compound 1, N-[(dimethyl-phenylsilyl)methyl]piperidine fumarate], for which the ED50 in assay [2] is 30.7 mg/kg.
On to `C[Si](C)(CN1CCCCC1)c1ccc(F)cc1.O=C(O)/C=C/C(=O)O` [Compound 4, N-([dimethyl-(4-fluorophenyl)silyl]methyl)piperidine fumarate], for which the “Duration of effect T75%” value in assay [1] (setting [4]) is recorded as 180 min. Also, the ED50 in assay [2] amounted to 19.1 mg/kg.
With `C[Si](C)(CN1CCCCC1)c1ccc(F)cc1.Cl` [Compound 5, N-([dimethyl-(4-fluorophenyl)silyl]methyl)piperidine hydrochloride], in assay [1] (setting [4]), the “Duration of effect T75%” value is more than 180 min. The ED50 in assay [2] was determined as 17.8 mg/kg.
`C[Si](C)(CN1CCCC1)c1ccc(F)cc1.Cl` [Compound 6, N-([dimethyl-(4-fluorophenyl)silyl]methyl)pyrrolidine hydrochloride]: in assay [1] (setting [4]), the “Duration of effect T75%” value is more than 180 min. The 50% effective dose (ED50) in assay [2] was determined as 26.9 mg/kg.
